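In this assay, cells in 96-well plates receive the compound at five concentrations for 48 hours. Endpoints are linearly interpolated between the surrounding concentrations. GI50: concentration for 50% inhibition of growth.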 Activity calls are given as the source filed them. Cut-off read from the data, not from the text of the source: active = GI50 up to about 1.1 µM and inactive = higher.
Key:
Test in all cases: NCI tumour cell line growth inhibition, 48 h
SF-268 = system: SF-268
SK-MEL-28 = system: SK-MEL-28
PC-3 = system: PC-3
OVCAR-5 = system: OVCAR-5
M14 = system: M14
MCF7 = system: MCF7
T47D = system: T47D
HL-60 = system: HL-60
HCT-116 = system: HCT-116
786-0 = system: 786-0
HOP-92 = system: HOP-92
K562 = system: K562
SNB-75 = system: SNB-75
HCT-15 = system: HCT-15
NCI-H522 = system: NCI-H522
OVCAR-8 = system: OVCAR-8
UACC-257 = system: UACC-257
SN12C = system: SN12C
MDA-N = system: MDA-N
RPMI-8226 = system: RPMI-8226

Structure (SMILES)	GI50 (SF-268)	GI50 (SK-MEL-28)	GI50 (PC-3)	GI50 (OVCAR-5)	GI50 (M14)	GI50 (MCF7)	GI50 (T47D)	GI50 (HL-60)	GI50 (HCT-116)	GI50 (786-0)	GI50 (HOP-92)	GI50 (K562)	GI50 (SNB-75)	GI50 (HCT-15) [µM]	GI50 (NCI-H522)	GI50 (OVCAR-8)	GI50 (UACC-257)	GI50 (SN12C)	GI50 (MDA-N)	GI50 (RPMI-8226)
COc1cccc2c1C(=O)c1c(O)c3c(c(O)c1C2=O)CC(O)(C(C)=O)CC3OC1OC(COC(C)=O)C(OC(C)=O)C(OC(C)=O)C1OC(C)=O (stereo unspecified)	11.4 µM (inactive)	85.5 µM (inactive)	> 100 µM (inactive)	24.1 µM (inactive)	43.8 µM (inactive)	65.2 µM (inactive)	38.8 µM (inactive)	53.8 µM (inactive)	55.8 µM (inactive)	12.1 µM (inactive)	0.515 µM (active)	18.5 µM (inactive)	9.29 µM (inactive)	47.2	> 100 µM (inactive)	11.5 µM (inactive)	< 0.01 µM (active)	48.3 µM (inactive)		
Cc1nn2c(C(=O)N/N=C/c3ccc([N+](=O)[O-])cc3)c(C)nc2s1	> 100 µM (inactive)	> 100 µM (inactive)		> 100 µM (inactive)	> 100 µM (inactive)	90.4 µM (inactive)	> 100 µM (inactive)	> 100 µM (inactive)	> 100 µM (inactive)	> 100 µM (inactive)	> 100 µM (inactive)	94.2 µM (inactive)	50.5 µM (inactive)	> 100	51.2 µM (inactive)	> 100 µM (inactive)	> 100 µM (inactive)	> 100 µM (inactive)	> 100 µM (inactive)	
CCOC(=O)c1nnsc1NC(=O)NCCCCCCn1c(=O)n(CCCCCCNC(=O)Nc2snnc2C(=O)OCC)c(=O)n(CCCCCCNC(=O)Nc2snnc2C(=O)OCC)c1=O	19.8 µM (inactive)		50.9 µM (inactive)	> 100 µM (inactive)	> 100 µM (inactive)	97.3 µM (inactive)	33 µM (inactive)		38.8 µM (inactive)	16.7 µM (inactive)		66.4 µM (inactive)	29.1 µM (inactive)	> 100		35.8 µM (inactive)	85.3 µM (inactive)	33.3 µM (inactive)	36.8 µM (inactive)	11 µM (inactive)
COCN1C(=O)[C@@H]2C[C@@H](OC/C=C/CBr)CN2C(=O)c2ccccc21	25.1 µM (inactive)	18.9 µM (inactive)	17.1 µM (inactive)	20.1 µM (inactive)	16.1 µM (inactive)	5.78 µM (inactive)	19.5 µM (inactive)	6.27 µM (inactive)	13.2 µM (inactive)	21.5 µM (inactive)			10.7 µM (inactive)	17.9	5.68 µM (inactive)	14.5 µM (inactive)	16.5 µM (inactive)	14.1 µM (inactive)	15.8 µM (inactive)	
CC1(O)C(=O)OC2CC([C@]3(O)CCC4[C@@H]5C[C@H]6O[C@]67[C@@H](O)C=CC(=O)[C@]7(C)C5CC[C@@]43C)C1(C)C2 (stereo partly specified)	16 µM (inactive)	9.35 µM (inactive)	20.1 µM (inactive)	23.8 µM (inactive)	12.6 µM (inactive)		5.97 µM (inactive)	3.52 µM (inactive)	10.9 µM (inactive)	12.9 µM (inactive)	3.44 µM (inactive)	3.6 µM (inactive)	29.8 µM (inactive)	17.9	1.82 µM (inactive)	25.1 µM (inactive)	11.5 µM (inactive)	16.5 µM (inactive)	12.3 µM (inactive)	3.24 µM (inactive)
Clc1ccc(-c2nnc(C34CC5CC(CC(C5)C3)C4)o2)cc1	> 100 µM (inactive)	> 100 µM (inactive)	> 100 µM (inactive)	> 100 µM (inactive)	> 100 µM (inactive)		> 100 µM (inactive)	> 100 µM (inactive)	> 100 µM (inactive)	> 100 µM (inactive)	> 100 µM (inactive)	> 100 µM (inactive)	> 100 µM (inactive)	> 100	> 100 µM (inactive)	> 100 µM (inactive)	> 100 µM (inactive)	> 100 µM (inactive)	> 100 µM (inactive)	> 100 µM (inactive)
NCCCCN(CCCN)C(=O)OCc1ccccc1	> 100 µM (inactive)	> 100 µM (inactive)	> 100 µM (inactive)	> 100 µM (inactive)	> 100 µM (inactive)	> 100 µM (inactive)	> 100 µM (inactive)	> 100 µM (inactive)	> 100 µM (inactive)	> 100 µM (inactive)	> 100 µM (inactive)	> 100 µM (inactive)	> 100 µM (inactive)	> 100	> 100 µM (inactive)	> 100 µM (inactive)	> 100 µM (inactive)	> 100 µM (inactive)		> 100 µM (inactive)
O=C(O)c1ccccc1/C=C1\Cc2ccccc2C1=O	> 100 µM (inactive)	> 100 µM (inactive)	> 100 µM (inactive)	> 100 µM (inactive)	> 100 µM (inactive)	> 100 µM (inactive)	> 100 µM (inactive)	> 100 µM (inactive)	> 100 µM (inactive)	> 100 µM (inactive)		> 100 µM (inactive)	> 100 µM (inactive)	> 100	> 100 µM (inactive)	> 100 µM (inactive)	> 100 µM (inactive)	> 100 µM (inactive)	> 100 µM (inactive)	71.4 µM (inactive)
Cc1nc2ccc(NC(=S)Nc3ccccc3)cc2c(=O)n1-c1ccccc1	> 100 µM (inactive)	62.2 µM (inactive)	> 100 µM (inactive)	> 100 µM (inactive)		> 100 µM (inactive)	> 100 µM (inactive)	31.8 µM (inactive)	> 100 µM (inactive)	> 100 µM (inactive)		46.3 µM (inactive)	> 100 µM (inactive)	> 100	> 100 µM (inactive)	> 100 µM (inactive)	> 100 µM (inactive)	> 100 µM (inactive)	> 100 µM (inactive)	23.6 µM (inactive)
CCn1c(SCC(=O)NNC(=S)Nc2ccc(C)cc2)nc2ccccc2c1=O	57.3 µM (inactive)	> 100 µM (inactive)	> 100 µM (inactive)	> 100 µM (inactive)	> 100 µM (inactive)	> 100 µM (inactive)	65.5 µM (inactive)	> 100 µM (inactive)	> 100 µM (inactive)	> 100 µM (inactive)		51.9 µM (inactive)	> 100 µM (inactive)	> 100	> 100 µM (inactive)	> 100 µM (inactive)	> 100 µM (inactive)	> 100 µM (inactive)	> 100 µM (inactive)	70.1 µM (inactive)
O=c1[nH]c2nccn2c2c1SCCN2	> 100 µM (inactive)	> 100 µM (inactive)	> 100 µM (inactive)	> 100 µM (inactive)	> 100 µM (inactive)	> 100 µM (inactive)	> 100 µM (inactive)	> 100 µM (inactive)	> 100 µM (inactive)	> 100 µM (inactive)		> 100 µM (inactive)	> 100 µM (inactive)	> 100	> 100 µM (inactive)	> 100 µM (inactive)	> 100 µM (inactive)	> 100 µM (inactive)	> 100 µM (inactive)	> 100 µM (inactive)

From ChEMBL document CHEMBL1201862, “PubChem BioAssay data set” (2004)
